Converted amounts (≈) assume the structure as drawn. The source made the active and inactive calls. The rule behind the calls is not given here.
Columns and labels:
Staphylococcus aureus [1] = test: Antibacterial activity against methicillin-resistant Staphylococcus aureus assessed as log reduction in bacterial count at 10 uM incubated in dark for 30 mins followed by exposure to light fluences at 650 nm and 6 J/cm2 and then incubated overnight measured after 24 hrs; format: functional
Pseudomonas aeruginosa [2] = test: Antibacterial activity against Pseudomonas aeruginosa ATCC 27853 incubated in dark for 30 mins followed by exposure to light fluences at 650 nm and 6 J/cm2 and then incubated overnight measured after 24 hrs; format: functional; conditions: ATCC 27853, light or radiation study
Escherichia coli [3] = test: Antibacterial activity against Escherichia coli ATCC 25922 incubated in dark for 30 mins and grown for 24 hrs followed by further incubation on LB agar plates for another 24 hrs; format: functional
Escherichia coli [4] = test: Antibacterial activity against Escherichia coli ATCC 25922 incubated in dark for 30 mins measured after 24 hrs; format: functional
Escherichia coli [5] = test: Bactericidal activity against Escherichia coli ATCC 25922 incubated in dark for 30 mins followed by exposure to light fluences at 650 nm and 6 J/cm2 and then incubated overnight followed by further incubation on LB agar plates for another 24 hrs; format: functional; conditions: ATCC 25922, light or radiation study
Staphylococcus aureus [6] = test: Antibacterial activity against methicillin-resistant Staphylococcus aureus incubated in dark for 30 mins and grown for 24 hrs followed by further incubation on LB agar plates for another 24 hrs; format: functional
Pseudomonas aeruginosa [7] = test: Antibacterial activity against Pseudomonas aeruginosa ATCC 27853 incubated in dark for 30 mins measured after 24 hrs; format: functional
[8] = Photostability at 2 x 10^-5 mol/L exposed to 4.2 mW/cm2 light energy density assessed as change in absorption spectra after 30 mins post irradiation; format: physicochemical; conditions: 0.5 h, 20 µM
Staphylococcus aureus [9] = test: Antibacterial activity against methicillin-resistant Staphylococcus aureus incubated in dark for 30 mins followed by exposure to light fluences at 650 nm and 6 J/cm2 and then incubated overnight measured after 24 hrs; format: functional; conditions: light or radiation study
Pseudomonas aeruginosa [10] = test: Antibacterial activity against Pseudomonas aeruginosa ATCC 27853 assessed as log reduction in bacterial count at 10 uM incubated in dark for 30 mins followed by exposure to light fluences at 650 nm and 6 J/cm2 and then incubated overnight measured after 24 hrs; format: functional
[11] = Singlet oxygen generation of the compound exposed to 4.2 mW/cm2 light energy density assessed as singlet oxygen quantum yield measured at 410 nm in 10 seconds intervals of irradiation at 0.2 uM by DPBF scavenger based assay
[12] = Octanol water partition coefficient, log P of the compound by reverse-phase thin-layer chromatography; format: physicochemical
Pseudomonas aeruginosa [13] = test: Antibacterial activity against Pseudomonas aeruginosa ATCC 27853 incubated in dark for 30 mins and grown for 24 hrs followed by further incubation on LB agar plates for another 24 hrs; format: functional
Escherichia coli [14] = test: Antibacterial activity against Escherichia coli ATCC 25922 assessed as log reduction in bacterial count at 10 uM incubated in dark for 30 mins followed by exposure to light fluences at 650 nm and 6 J/cm2 and then incubated overnight measured after 24 hrs; format: functional
Staphylococcus aureus [15] = test: Antibacterial activity against methicillin-resistant Staphylococcus aureus incubated in dark for 30 mins measured after 24 hrs; format: functional
Pseudomonas aeruginosa [16] = test: Bactericidal activity against Pseudomonas aeruginosa ATCC 27853 incubated in dark for 30 mins followed by exposure to light fluences at 650 nm and 6 J/cm2 and then incubated overnight followed by further incubation on LB agar plates for another 24 hrs; format: functional; conditions: ATCC 27853, light or radiation study
Escherichia coli [17] = test: Antibacterial activity against Escherichia coli ATCC 25922 incubated in dark for 30 mins followed by exposure to light fluences at 650 nm and 6 J/cm2 and then incubated overnight measured after 24 hrs; format: functional; conditions: ATCC 25922, light or radiation study
Staphylococcus aureus [18] = test: Bactericidal activity against methicillin-resistant Staphylococcus aureus incubated in dark for 30 mins followed by exposure to light fluences at 650 nm and 6 J/cm2 and then incubated overnight followed by further incubation on LB agar plates for another 24 hrs; format: functional; conditions: light or radiation study
Escherichia coli [19] = test: Drug uptake in Escherichia coli ATCC 25922 at 12.5 uM by confocal laser scanning microscopy; format: ADME, organism-based; conditions: in vivo
Staphylococcus aureus [20] = test: Drug uptake in methicillin-resistant Staphylococcus aureus at 12.5 uM by confocal laser scanning microscopy; format: ADME, organism-based; conditions: in vivo
Pseudomonas aeruginosa [21] = test: Drug uptake in Pseudomonas aeruginosa ATCC 27853 at 12.5 uM by confocal laser scanning microscopy; format: ADME, organism-based; conditions: in vivo
[22] = Toxicity against human […] cells assessed as reduction in cell viability by MTT assay; format: cell-based
Escherichia coli [23] = test: Antibacterial activity against Escherichia coli ATCC 25922 assessed as log reduction in bacterial count at 7.81 uM incubated in dark for 30 mins followed by exposure to light fluences at 650 nm and 6 J/cm2 and then incubated overnight measured after 24 hrs; format: functional, organism-based
Escherichia coli [24] = test: Antibacterial activity against Escherichia coli ATCC 25922 at 3.91 uM to 62.50 uM incubated in dark for 30 mins followed by exposure to light fluences at 650 nm and 6 J/cm2 and then incubated overnight measured after 24 hrs; format: functional, organism-based
Pseudomonas aeruginosa [25] = test: Antibacterial activity against Pseudomonas aeruginosa ATCC 27853 at 3.91 uM to 62.50 uM incubated in dark for 30 mins followed by exposure to light fluences at 650 nm and 6 J/cm2 and then incubated overnight measured after 24 hrs; format: functional, organism-based
Pseudomonas aeruginosa [26] = test: Antibacterial activity against Pseudomonas aeruginosa ATCC 27853 assessed as log reduction in bacterial count at 3.5 uM incubated in dark for 30 mins followed by exposure to light fluences at 650 nm and 6 J/cm2 and then incubated overnight measured after 24 hrs; format: functional
Escherichia coli [27] = test: Antibacterial activity against Escherichia coli ATCC 25922 at 0.49 uM to 7.8 uM incubated in dark for 30 mins followed by exposure to light fluences at 650 nm and 6 J/cm2 and then incubated overnight measured after 24 hrs; format: functional, organism-based
Pseudomonas aeruginosa [28] = test: Antibacterial activity against Pseudomonas aeruginosa ATCC 27853 at 0.49 uM to 7.8 uM incubated in dark for 30 mins followed by exposure to light fluences at 650 nm and 6 J/cm2 and then incubated overnight measured after 24 hrs; format: functional, organism-based
Escherichia coli [29] = test: Antibacterial activity against Escherichia coli ATCC 25922 assessed as log reduction in bacterial count at 2 uM incubated in dark for 30 mins followed by exposure to light fluences at 650 nm and 6 J/cm2 and then incubated overnight measured after 24 hrs; format: functional
[30] = Stability in mouse serum assessed as compound remaining after 24 hrs by RP-HPLC method; format: ADME; conditions: read-out: Stability
Pseudomonas aeruginosa [31] = test: Antibacterial activity against Pseudomonas aeruginosa ATCC 27853 assessed as log reduction in bacterial count at 7.81 uM incubated in dark for 30 mins followed by exposure to light fluences at 650 nm and 6 J/cm2 and then incubated overnight measured after 24 hrs; format: functional, organism-based
[32] = Toxicity against human […] cells assessed as cell viability at 3.91 to 62.5 uM under dark conditions by MTT assay; format: cell-based; conditions: read-out: Activity
[33] = Toxicity against human […] cells irradiated with 6 J/cm2 radiation assessed as cell viability at 7.81 uM by MTT assay; format: cell-based; conditions: read-out: Activity
Staphylococcus aureus [34] = test: Antibacterial activity against methicillin-resistant Staphylococcus aureus at 0.49 uM to 7.8 uM incubated in dark for 30 mins followed by exposure to light fluences at 650 nm and 6 J/cm2 and then incubated overnight measured after 24 hrs; format: functional, organism-based
Staphylococcus aureus [35] = test: Antibacterial activity against methicillin-resistant Staphylococcus aureus assessed as log reduction in bacterial count at 2 uM incubated in dark for 30 mins followed by exposure to light fluences at 650 nm and 6 J/cm2 and then incubated overnight measured after 24 hrs; format: functional

Row | Structure (SMILES) | Log reduction in bacterial count (Staphylococcus aureus [1]) | MIC (Pseudomonas aeruginosa [2]) [µM] | MBC (Escherichia coli [3]) [µM] | MIC (Escherichia coli [4]) [µM] | MBC (Escherichia coli [5]) [µM] | MBC (Staphylococcus aureus [6]) [µM] | MIC (Pseudomonas aeruginosa [7]) [µM] | Activity [8] [%] | MIC (Staphylococcus aureus [9]) [µM] | log reduction in bacterial count (Pseudomonas aeruginosa [10]) | Activity [11] | logP [12] | MBC (Pseudomonas aeruginosa [13]) [µM] | log reduction in bacterial count (Escherichia coli [14]) | MIC (Staphylococcus aureus [15]) [µM] | MBC (Pseudomonas aeruginosa [16]) [µM] | MIC (Escherichia coli [17]) [µM] | MBC (Staphylococcus aureus [18]) [µM] | Drug uptake (Escherichia coli [19]) | Drug uptake (Staphylococcus aureus [20]) | further results
1 | NCCCC[C@H](N)C(=O)Nc1ccc(-c2c3nc(c(-c4ccc(NC(=O)[C@@H](N)CCCCN)cc4)c4ccc([nH]4)c(-c4ccc(NC(=O)[C@@H](N)CCCCN)cc4)c4nc(c(-c5ccc(N)cc5)c5ccc2[nH]5)C=C4)C=C3)cc1 | 3 | 31.2 (≈ 33.1 µg/mL) | > 500 | 125 (≈ 132 µg/mL) | 31.2 (≈ 33.1 µg/mL) | 500 (≈ 530 µg/mL) | 250 (≈ 265 µg/mL) | < 20 | 31.2 (≈ 33.1 µg/mL) | 1 | 0.73 | 1.21 | > 500 | 3 | 125 (≈ 132 µg/mL) | 62.5 (≈ 66.2 µg/mL) | 15.6 (≈ 16.5 µg/mL) | 62.5 (≈ 66.2 µg/mL) | – | – | –
2 | NCCCC[C@H](N)C(=O)Nc1ccc(-c2c3nc(c(-c4ccccc4)c4ccc([nH]4)c(-c4ccc(NC(=O)[C@@H](N)CCCCN)cc4)c4nc(c(-c5ccccc5)c5ccc2[nH]5)C=C4)C=C3)cc1 | 3 | 31.2 (≈ 28.2 µg/mL) | 125 (≈ 113 µg/mL) | 62.5 (≈ 56.3 µg/mL) | 31.2 (≈ 28.2 µg/mL) | 250 (≈ 225 µg/mL) | 62.5 (≈ 56.3 µg/mL) | < 20 | 15.6 (≈ 14.1 µg/mL) | >5 | 0.57 | 1.37 | 125 (≈ 113 µg/mL) | 2 | 125 (≈ 113 µg/mL) | 62.5 (≈ 56.3 µg/mL) | 15.6 (≈ 14.1 µg/mL) | 31.2 (≈ 28.2 µg/mL) | – | – | –
3 | NCCCC[C@H](N)C(=O)Nc1ccc(-c2c3nc(c(-c4ccc(N)cc4)c4ccc([nH]4)c(-c4ccc(NC(=O)[C@@H](N)CCCCN)cc4)c4nc(c(-c5ccc(N)cc5)c5ccc2[nH]5)C=C4)C=C3)cc1 | 3 | 15.6 (≈ 14.6 µg/mL) | 500 (≈ 466 µg/mL) | 250 (≈ 233 µg/mL) | 31.2 (≈ 29.1 µg/mL) | 250 (≈ 233 µg/mL) | 250 (≈ 233 µg/mL) | < 20 | 7.81 (≈ 7.27 µg/mL) | >5 | 0.79 | 1.3 | 500 (≈ 466 µg/mL) | 2 | 125 (≈ 116 µg/mL) | 31.2 (≈ 29.1 µg/mL) | 15.6 (≈ 14.6 µg/mL) | 15.6 (≈ 14.6 µg/mL) | – | – | –
4 | NCCCC[C@H](N)C(=O)Nc1ccc(-c2c3nc(c(-c4ccccc4)c4ccc([nH]4)c(-c4ccccc4)c4nc(c(-c5ccccc5)c5ccc2[nH]5)C=C4)C=C3)cc1 | – | 250 (≈ 189 µg/mL) | > 500 | > 500 | > 500 | > 500 | 500 (≈ 379 µg/mL) | < 20 | 500 (≈ 379 µg/mL) | – | 0.83 | 1.69 | > 500 | – | > 500 | 500 (≈ 379 µg/mL) | 500 (≈ 379 µg/mL) | > 500 | Not Active | Not Active | Drug uptake (Pseudomonas aeruginosa [21]): Not Active
5 | NCCCC[C@H](N)C(=O)Nc1ccc(-c2c3nc(c(-c4ccc(NC(=O)[C@@H](N)CCCCN)cc4)c4ccc([nH]4)c(-c4ccccc4)c4nc(c(-c5ccccc5)c5ccc2[nH]5)C=C4)C=C3)cc1 | 3 | 31.2 (≈ 28.2 µg/mL) | 250 (≈ 225 µg/mL) | 125 (≈ 113 µg/mL) | 62.5 (≈ 56.3 µg/mL) | 125 (≈ 113 µg/mL) | 62.5 (≈ 56.3 µg/mL) | < 20 | 31.2 (≈ 28.2 µg/mL) | >5 | 0.65 | 1.39 | 125 (≈ 113 µg/mL) | 2 | 62.5 (≈ 56.3 µg/mL) | 62.5 (≈ 56.3 µg/mL) | 31.2 (≈ 28.2 µg/mL) | 62.5 (≈ 56.3 µg/mL) | – | – | –
6 | NCCCC[C@H](N)C(=O)Nc1ccc(-c2c3nc(c(-c4ccc(NC(=O)[C@@H](N)CCCCN)cc4)c4ccc([nH]4)c(-c4ccc(NC(=O)[C@@H](N)CCCCN)cc4)c4nc(c(-c5ccc(NC(=O)[C@@H](N)CCCCN)cc5)c5ccc2[nH]5)C=C4)C=C3)cc1 | – | 7.81 (≈ 9.27 µg/mL) | 125 (≈ 148 µg/mL) | 62.5 (≈ 74.2 µg/mL) | 3.91 (≈ 4.64 µg/mL) | 125 (≈ 148 µg/mL) | 250 (≈ 297 µg/mL) | < 20 | 3.91 (≈ 4.64 µg/mL) | – | 0.95 | 0.9 | > 500 | – | 62.5 (≈ 74.2 µg/mL) | 15.6 (≈ 18.5 µg/mL) | 1.95 (≈ 2.32 µg/mL) | 7.81 (≈ 9.27 µg/mL) | Active | Active | Activity [22]: Dose-dependent effect; Activity (Escherichia coli [23]): Active; Activity (Escherichia coli [24]): Dose-dependent effect; Activity (Pseudomonas aeruginosa [25]): Dose-dependent effect; Drug uptake (Pseudomonas aeruginosa [21]): Active; FC (Pseudomonas aeruginosa [26]): 3; Activity (Escherichia coli [27]): Dose-dependent effect; Activity (Pseudomonas aeruginosa [28]): Dose-dependent effect; FC (Escherichia coli [29]): 3; remaining at 24 h [30]: 85%; Activity (Pseudomonas aeruginosa [31]): Active; viability at 62.5 µM [32]: > 90%; viability at 7.81 µM [33]: > 85%; Activity (Staphylococcus aureus [34]): Dose-dependent effect; FC (Staphylococcus aureus [35]): 3

From ChEMBL document CHEMBL3407491, “Synthesis, characterization and in vitro photodynamic antimicrobial activity of basic amino acid-porphyrin conjugates” (Eur J Med Chem, 2015)
